Assay results taken from patent publication US3953474A.

How the values were obtained:
[1] = test system: E. tenella; assay: Efficacy against E. tenella in broiler cockerels (Table I); assay type: in vivo, Eimeria tenella; details: for Percent Mortality: due to coccidiosis; for Percent Weight Gain: normal controls = 100; for Average Cecal Lesion Score: scale 0-4
Description: (§1) The anticoccidial effects of the A204I derivatives are illustrated by the effects of various of the compounds in controlling single-species infections of Eimeria tenella, Eimeria necatrix, Eimeria mivati, and Eimeria brunetti and a multiple-species infection of Eimeria maxima and Eimeria tenella in chickens.
(§2) For these studies, groups of five 7-day-old chicks were fed a mash diet containing therein a uniformly dispersed A204I derivative. After having been on this ration for 48 hours, each bird was inoculated with sporulated oocysts of the particular species of Eimeria being tested.
(§3) Some of these groups were also inoculated with Eimeria after 48 hours and served as infected controls. Other of these groups were not inoculated with Eimeria and served as normal controls. The results of treatment were evaluated 7 days after inoculation. The birds were weighed, sacrificed and examined for evidence of coccidial lesions. Coccidial involvement was expressed on an arbitrary scale, increasing from zero (no evidence of coccidiosis) to four (maximum involvement for the Eimeria sp. tested). The percent reduction in lesion score is calculated by subtracting the average lesion score of the treated group from the average lesion score of the infected control group, dividing this difference by the average lesion score of the infected control group, and multiplying the quotient by 100.
(§4) The percent weight gain is calculated using the weight gain of normal controls as 100 percent.

[2] = Acute oral toxicity in mice; details: mouse, in vivo
Text: The acute toxicities in mice of various of the A204I derivatives, also administered orally and expressed as LD50, are as follows: […]

[3] = test system: E. brunetti; assay: Efficacy against E. brunetti in broiler cockerels (Table IV); assay type: in vivo, Eimeria brunetti; details: for Percent Mortality: due to coccidiosis; for Percent Weight Gain: normal controls = 100; for Average Lesion Score: scale 0-4; for Percent Reduction Lesion Score: vs infected controls
Description: as §1, §2, §3, §4

[4] = test system: E. mivati; assay: Efficacy against E. mivati in broiler cockerels (Table III); assay type: in vivo, Eimeria mivati; details: for Percent Mortality: due to coccidiosis; for Percent Weight Gain: normal controls = 100; for Average Intestinal Lesion Score: scale 0-4; for Percent Reduction Lesion Score: vs infected controls
Description: as §1, §2, §3, §4

[5] = Rat feeding studies (Table VII); assay type: in vivo, rats; details: 14 days, mean
Description: For this test, five rats of each sex were studied for 14 days at each treatment level. The mean changes in body weight and the mean amounts of food ingested were calculated for each group.

[6] = test system: E. necatrix; assay: Efficacy against E. necatrix in broiler cockerels (Table II); assay type: in vivo, Eimeria necatrix; details: for Percent Mortality: due to coccidiosis; for Percent Weight Gain: normal controls = 100; for Average Intestinal Lesion Score: scale 0-4; for Percent Reduction Lesion Score: vs infected controls
Description: as §1, §2, §3, §4

[7] = test system: E. maxima and E. tenella; assay: Efficacy against a mixed infection of E. maxima and E. tenella in broiler cockerels (Table V); assay type: in vivo, Eimeria maxima and Eimeria tenella; details: for Percent Mortality: due to coccidiosis; for Percent Weight Gain: normal controls = 100; for Cecal Lesions, Average Lesion Score / Intestinal Lesions, Average Lesion Score: scale 0-4; for Intestinal Lesions, Percent Reduction Lesion Score / Cecal Lesions, Percent Reduction Lesion Score: vs infected controls
Description: as §1, §2, §3, §4

[8] = pKa' determination; details: 66% aqueous dimethylformamide
[9] = second experiment, .0025 percent in diet
[10] = second experiment, .0025 percent in diet, vs infected control
[11] = first experiment, .00165 percent in diet
[12] = first experiment, .0066 percent in diet
[13] = second experiment, .005 percent in diet

COCCOC1(C(C)C(=O)O)OC(CC2CC(OC)C(C)C3(O2)OC(C)(C2CCC(C4CCC(C5OC(C)(O)C(C)C(OC)C5C)O4)O2)C(OC)C3C)C(C)(OC)C(OC2CCC(OC)C(C)O2)C1C (stereo not shown) [A204I 2-methoxyethyl ether derivative]
Percent Mortality [1, 9]: 0%
Percent Weight Gain [1, 9]: 90%
Average Cecal Lesion Score [1, 9]: 2.9
Percent Reduction Lesion Score [1, 10]: < 40%

COC1CCC(OC2C(C)C(OC(C)C)(C(C)C(=O)O)OC(CC3CC(OC)C(C)C4(O3)OC(C)(C3CCC(C5CCC(C6OC(C)(O)C(C)C(OC)C6C)O5)O3)C(OC)C4C)C2(C)OC)OC1C (stereo not shown) [A204I isopropyl ether, A204I isopropyl ether derivative]
LD50 [2]: 20 to 36 mg/kg
Percent Mortality [1, 9]: 0%
Percent Weight Gain [1, 9]: 95%
Average Cecal Lesion Score [1, 9]: 2.3
Percent Reduction Lesion Score [1, 10]: < 40%

CCCOC1(C(C)C(=O)O)OC(CC2CC(OC)C(C)C3(O2)OC(C)(C2CCC(C4CCC(C5OC(C)(O)C(C)C(OC)C5C)O4)O2)C(OC)C3C)C(C)(OC)C(OC2CCC(OC)C(C)O2)C1C (stereo not shown) [A204I n-propyl ether, A204I n-propyl ether derivative]
Percent Mortality ([3]; .0025 percent in diet): 0%
Percent Weight Gain ([3]; .0025 percent in diet): 95%
Average Lesion Score ([3]; .0025 percent in diet): 0.80
Percent Mortality ([3]; .005 percent in diet): 0%
Percent Weight Gain ([3]; .005 percent in diet): 89%
Average Lesion Score ([3]; .005 percent in diet): 0
Percent Reduction Lesion Score ([3]; .005 percent in diet): 100%
Percent Mortality ([3]; .01 percent in diet): 0%
Percent Weight Gain ([3]; .01 percent in diet): 89%
Average Lesion Score ([3]; .01 percent in diet): 0
Percent Reduction Lesion Score ([3]; .01 percent in diet): 100%
Percent Mortality ([4]; .0025 percent in diet): 0%
Percent Weight Gain ([4]; .0025 percent in diet): 94%
Average Intestinal Lesion Score ([4]; .0025 percent in diet): 0.27
Percent Reduction Lesion Score ([4]; .0025 percent in diet): 85%
Percent Mortality ([4]; .005 percent in diet): 0%
Percent Weight Gain ([4]; .005 percent in diet): 97%
Average Intestinal Lesion Score ([4]; .005 percent in diet): 0
Percent Reduction Lesion Score ([4]; .005 percent in diet): 100%
Percent Mortality ([4]; .01 percent in diet): 0%
Percent Weight Gain ([4]; .01 percent in diet): 98%
Average Intestinal Lesion Score ([4]; .01 percent in diet): 0
Percent Reduction Lesion Score ([4]; .01 percent in diet): 100%
Body Weight Change ([5]; female, 5 ppm): +34.0 g
Food ingested ([5]; female, 5 ppm): 224 g
Body Weight Change ([5]; female, 10 ppm): +36.0 g
Food ingested ([5]; female, 10 ppm): 218 g
Body Weight Change ([5]; female, 20 ppm): +31.6 g
Food ingested ([5]; female, 20 ppm): 229 g
Body Weight Change ([5]; male, 5 ppm): +77.8 g
Food ingested ([5]; male, 5 ppm): 281 g
Body Weight Change ([5]; male, 10 ppm): +45.2 g
Food ingested ([5]; male, 10 ppm): 221 g
Body Weight Change ([5]; male, 20 ppm): +66.6 g
Food ingested ([5]; male, 20 ppm): 288 g
Percent Mortality ([6]; .0025 percent in diet): 0%
Percent Weight Gain ([6]; .0025 percent in diet): 63%
Average Intestinal Lesion Score ([6]; .0025 percent in diet): 1.6
Percent Reduction Lesion Score ([6]; .0025 percent in diet): 59%
Percent Mortality ([6]; .005 percent in diet): 6.7%
Percent Weight Gain ([6]; .005 percent in diet): 92%
Average Intestinal Lesion Score ([6]; .005 percent in diet): 0.2
Percent Reduction Lesion Score ([6]; .005 percent in diet): 95%
Percent Mortality ([6]; .01 percent in diet): 0%
Percent Weight Gain ([6]; .01 percent in diet): 89%
Average Intestinal Lesion Score ([6]; .01 percent in diet): 0
Percent Reduction Lesion Score ([6]; .01 percent in diet): 100%
LD50 [2]: 38 ± 6 mg/kg
Percent Mortality [1, 11]: 35%
Percent Weight Gain [1, 11]: 79%
Average Cecal Lesion Score [1, 11]: 4.0
Percent Reduction Lesion Score ([1]; first experiment, .00165 percent in diet, vs infected controls): 0%
Percent Mortality [1, 12]: 20%
Percent Weight Gain [1, 12]: 79%
Average Cecal Lesion Score [1, 12]: 3.7
Percent Reduction Lesion Score ([1]; first experiment, .0066 percent in diet, vs infected controls): 0%
Percent Mortality [1, 9]: 0%
Percent Weight Gain [1, 9]: 87%
Average Cecal Lesion Score [1, 9]: 1.8
Percent Reduction Lesion Score [1, 10]: 50%
Percent Mortality [1, 13]: 0%
Percent Weight Gain [1, 13]: 96%
Average Cecal Lesion Score [1, 13]: 0
Percent Reduction Lesion Score ([1]; second experiment, .005 percent in diet, vs infected control): 100%
Percent Mortality ([7]; .0025 percent in diet): 0%
Percent Weight Gain ([7]; .0025 percent in diet): 94%
Cecal Lesions, Average Lesion Score ([7]; .0025 percent in diet): 2.67
Intestinal Lesions, Average Lesion Score ([7]; .0025 percent in diet): 0.13
Intestinal Lesions, Percent Reduction Lesion Score ([7]; .0025 percent in diet): 84%
Percent Mortality ([7]; .005 percent in diet): 0%
Percent Weight Gain ([7]; .005 percent in diet): 99%
Cecal Lesions, Average Lesion Score ([7]; .005 percent in diet): 0.07
Intestinal Lesions, Average Lesion Score ([7]; .005 percent in diet): 0.07
Cecal Lesions, Percent Reduction Lesion Score ([7]; .005 percent in diet): 98%
Intestinal Lesions, Percent Reduction Lesion Score ([7]; .005 percent in diet): 91%
Percent Mortality ([7]; .01 percent in diet): 0%
Percent Weight Gain ([7]; .01 percent in diet): 98%
Cecal Lesions, Average Lesion Score ([7]; .01 percent in diet): 0
Intestinal Lesions, Average Lesion Score ([7]; .01 percent in diet): 0
Cecal Lesions, Percent Reduction Lesion Score ([7]; .01 percent in diet): 100%
Intestinal Lesions, Percent Reduction Lesion Score ([7]; .01 percent in diet): 100%
pKa [8]: 7.8
